Tests used:
[1] = wavelength (λmax) at absorption spectrum peak and gram absorption coefficient at λmax; format: physicochemical; details: for λmax: wavelength at absorption spectrum peak
[2] = solubility to propylene glycol monomethyl ether acetate (PM) and cyclohexanone (AN); details: for Solubility to Solvent AN: cyclohexanone; for Solubility to Solvent PM: propylene glycol monomethyl ether acetate

Structure (SMILES)	Gram Absorption Coefficient at λmax [1]	λmax [1]	Solubility to Solvent AN [2]	Solubility to Solvent PM [2]
COc1ccccc1/C=C/C(=O)N1CCCCC1 [Comparative Compound 2, reference compound]	76	275 nm	<1 mass %	<1 mass %
CCO[Si](C)(CCCN)OCC [Comparative Compound 6, reference compound]	143	212 nm	>50 mass %	>50 mass %
CCN(CC)C(=O)/C=C/c1ccc(OC)cc1 [Compound 1]	90	309 nm	>50 mass %	>50 mass %
COc1ccc(/C=C/C(=O)Nc2ccccc2)cc1 [Compound 2]	117	317 nm	>50 mass %	>50 mass %
COc1ccc(/C=C/C(=O)n2ccnc2)cc1 [Compound 3]	81	293 nm	>50 mass %	>50 mass %
COc1ccc(/C=C/C(=O)N2CCOCC2)cc1 [Compound 4]	79	310 nm		
COc1ccc(/C=C/C(=O)n2ccnc2)c([N+](=O)[O-])c1 [Compound 5]	121	332 nm		
COc1ccc(/C=C/C(=O)n2ccnc2)cc1[N+](=O)[O-] [Compound 6]	86	344 nm		
COc1ccc(/C=C(\C)C(=O)n2ccnc2)c([N+](=O)[O-])c1 [Compound 7]	137	339 nm	>50 mass %	>50 mass %
COc1ccc(/C=C(\C)C(=O)n2ccnc2)cc1[N+](=O)[O-] [Compound 8]	98	351 nm		
CCN(CC)C(=O)/C=C/c1ccc(OC)cc1[N+](=O)[O-] [Compound 9]	102	342 nm	>50 mass %	>50 mass %
CCN(CC)C(=O)/C=C/c1ccc(OC)c([N+](=O)[O-])c1 [Compound 10]	119	354 nm	>50 mass %	>50 mass %
CCN(CC)C(=O)/C(C)=C/c1ccc(OC)cc1[N+](=O)[O-] [Compound 11]	107	349 nm	>50 mass %	>50 mass %
CCN(CC)C(=O)/C(C)=C/c1ccc(OC)c([N+](=O)[O-])c1 [Compound 12]	127	361 nm	>50 mass %	>50 mass %
COc1ccc(/C=C/C(=O)N2CCCCC2)c([N+](=O)[O-])c1 [Compound 13]	87	313 nm	>50 mass %	>50 mass %
COc1ccc(/C=C/C(=O)N2CCCCC2)cc1[N+](=O)[O-] [Compound 14]	94	322 nm	>50 mass %	>50 mass %
COc1ccc(/C=C(\C)C(=O)N2CCCCC2)c([N+](=O)[O-])c1 [Compound 15]	92	313 nm	>50 mass %	>50 mass %
COc1ccc(/C=C(\C)C(=O)N2CCCCC2)cc1[N+](=O)[O-] [Compound 16]	105	323 nm	>50 mass %	>50 mass %
COc1ccc(C=CC(=O)N2CCCCC2)cc1 [Compound 17]	74	281 nm	>50 mass %	>50 mass %
COc1ccc(C=C(C)C(=O)n2ccnc2)cc1 [Compound 18]	84	301 nm		
CCN(CC)C(=O)C(C)=Cc1ccc(OC)cc1 [Compound 19]	86	318 nm	>50 mass %	>50 mass %
CCN(CC)C(=O)C=Cc1ccc(OC)cc1O [compound 7, reference compound]	72	304 nm	>50 mass %	>50 mass %
COc1ccc(C=CC(=O)n2ccnc2)c(O)c1 [compound 9, reference compound]	65	290 nm	>50 mass %	>50 mass %
